From ChEMBL document CHEMBL2150938, “Pyrrolo[2,3-b]quinoxalines as inhibitors of firefly luciferase: their Cu-mediated synthesis and evaluation as false positives in a reporter gene assay” (Bioorg Med Chem Lett, 2012) come the findings set out here.

Test [1] addresses 3',5'-cyclic-AMP phosphodiesterase 4B (Homo sapiens) (UniProt Q07343). As to the kind of experiment: Inhibition of PDE4B at 30 uM by luciferase reporter gene assay. A general note: In a reporter assay the amount or activity of a reporter protein is the signal.
Test [2] deals with Lampyridae. As to the kind of experiment: inhibition of firefly luciferase at 30 uM after 15 mins by luminescence assay.

Chain of 3',5'-cyclic-AMP phosphodiesterase 4B (Homo sapiens) (Q07343 whole entry): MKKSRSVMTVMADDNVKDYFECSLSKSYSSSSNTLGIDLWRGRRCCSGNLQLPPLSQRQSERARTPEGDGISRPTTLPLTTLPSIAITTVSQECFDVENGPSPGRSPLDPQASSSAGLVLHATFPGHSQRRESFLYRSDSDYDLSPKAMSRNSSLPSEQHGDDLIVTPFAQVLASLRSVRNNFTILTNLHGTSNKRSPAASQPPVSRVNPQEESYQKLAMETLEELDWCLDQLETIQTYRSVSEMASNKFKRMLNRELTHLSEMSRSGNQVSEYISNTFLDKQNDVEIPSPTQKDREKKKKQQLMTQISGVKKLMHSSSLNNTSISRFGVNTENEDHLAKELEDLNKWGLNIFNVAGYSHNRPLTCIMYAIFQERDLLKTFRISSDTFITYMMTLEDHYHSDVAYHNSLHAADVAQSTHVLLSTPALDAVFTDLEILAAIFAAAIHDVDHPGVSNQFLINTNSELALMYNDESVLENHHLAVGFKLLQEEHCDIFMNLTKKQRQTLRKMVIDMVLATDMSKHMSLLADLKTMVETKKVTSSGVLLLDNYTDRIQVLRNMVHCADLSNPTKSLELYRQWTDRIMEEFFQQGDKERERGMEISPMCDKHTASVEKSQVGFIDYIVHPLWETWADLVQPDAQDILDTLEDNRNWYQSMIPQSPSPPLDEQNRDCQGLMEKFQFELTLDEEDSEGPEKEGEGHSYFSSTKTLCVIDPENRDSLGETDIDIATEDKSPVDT

`c1ccc(-c2cc3[nH]c4ccccc4nc-3n2)cc1`: the inhibition (as a rule, the drop in the measured response relative to a control, in per cent) came out at 98.3% in test [1] and 98.4% in test [2].
For `CC(C)(C)c1cc2nc3ccccc3nc2[nH]1`, the inhibition in test [1] turned out to be 100%; in test [2], 99.2%.
The matching figures for `CS(=O)(=O)n1c(-c2ccccc2)cc2nc3ccccc3nc21`: 94.7% and 92.4%.
